# Experimental data reported in a melting point compilation (Tetko et al.).
row,SMILES,melting point [°C]
1,Cc1cc(C)n2nc(C(=O)O)nc2n1,178 to 180
2,FC(F)(F)c1ccc2sc(S)nc2c1,221 to 223
3,CC(C)(C)CC(O)C(=O)O (centres undefined),71 to 73
4,O=C1CCCC(C(=O)O)N1 (centres undefined),94 to 96
5,Cc1ccccc1C(O)CN (centres undefined),88 to 90
6,O=C(c1ccccc1O)N1CCCCC1,133 to 135
7,CSc1ccsc1C(=O)O,194 to 196
8,CN1CCN(c2cccc(C#N)n2)CC1,59 to 61
9,COC(=O)c1cc2nc(Cl)ccc2n1C,134 to 136
10,CCOc1cc(C=O)cc(Br)c1OCc1ccccc1,55 to 57
11,CCOc1cc(C(=O)O)ccn1,171 to 173
12,N#CCc1cccc2cccnc12,84 to 86
13,CC(=O)N1CCCc2ccc(S(=O)(=O)Cl)cc21,93 to 95
14,Cc1cccc(-c2nn(-c3ccccc3)cc2C(=O)O)c1,146 to 148
15,Clc1nc(CN2CCCCC2)nc2sc3c(c12)CCCC3,51 to 53
16,COCC(C)NC(=O)CC#N (centres undefined),40 to 44
17,Cc1csc(-c2no[nH]c2=N)n1,147 to 149

row,SMILES,melting point [°C]
1,N#Cc1nc2ccccc2cc1Br,139 to 141
2,O=C(O)C1(Br)CCCCC1,57 to 59
3,CC1(c2ccc(O)cc2)NC(=O)NC1=O (centres undefined),240 to 242
4,Cc1cc(C)c(S(=O)(=O)N2CCCC2C(=O)O)c(C)c1 (centres undefined),84 to 86
5,Nc1cccc(Cl)c1Sc1ccccn1,87 to 89
6,NS(=O)(=O)c1ccc(C(=O)O)o1,212 to 214
7,O=C(O)CCSCc1ccccn1,74 to 76
8,CCN(C(=O)OC(C)(C)C)C(C(N)=S)c1cccnc1 (centres undefined),139 to 141
9,NC(=S)c1cccc([N+](=O)[O-])c1,132 to 134
10,CCc1nnn[nH]1,93 to 95
11,N#Cc1cccnc1OCC(F)(F)F,40 to 42
12,C1CCc2nnc(CN3CCNCC3)n2CC1,158 to 162
13,CNC(C)c1ccc(-n2cncn2)cc1 (centres undefined),44 to 48
14,Cc1cccc2cc(C(=O)O)[nH]c12,169 to 175
15,NCCCN1C(=O)C2C3C=CC(C3)C2C1=O (centres undefined),66 to 68
16,COc1cccc(C(=O)O)c1F,157 to 160

# Second part, the compound after the results:
row,melting point [°C],SMILES
1,110 to 114,Nc1sc2c(c1C(=O)c1cccc(F)c1)CCCC2
2,296 to 298,CSc1nccn1-c1ccc(C(=O)O)cc1
3,189 to 191,CC1Oc2ccc(Br)cc2NC1=O (centres undefined)
4,55 to 57,CCOc1cc(C=O)cc(Cl)c1OC
5,209 to 211,O=C(O)c1ccc2cc[nH]c2n1
6,89 to 91,CC(C)(O)c1nc2ccccc2s1
7,188 to 190,CCS(=O)(=O)c1ccc2c(c1)N(CC(=O)O)CC(=O)O2
8,84 to 86,O=C1CCCN1C1CCNCC1
9,72 to 74,O=C1CC(c2ccccc2)C(=O)N1 (centres undefined)
10,114 to 116,N#CCS(=O)(=O)c1cc(Cl)ccc1Cl
11,177 to 179,Nc1ccc(Oc2ccc(Cl)cc2)cc1C(=O)O
12,124 to 126,CCOC(=O)Nc1ccc(O)cc1
13,99 to 101,Cc1cc([N+](=O)[O-])ccc1C#N
14,64 to 66,CC(C)Cc1ccc(CCC(=O)O)cc1
15,57 to 59,CC(C)(C)c1nn(-c2ccccc2)cc1C=O
16,113 to 115,COC(=O)COc1ccc(O)cc1
17,151 to 155,Sc1nnc(C2COc3ccccc3O2)o1 (centres undefined)
18,202 to 204,Nc1ccc2nc(-n3ccnc3)sc2c1
19,196 to 198,Cc1oc(-c2cccs2)nc1C(=O)O
20,137 to 139,N#CCS(=O)(=O)N1CCCCC1
21,210 to 212,Cc1cnc(-c2cccc(C(=O)O)c2)s1
22,143 to 145,CCS(=O)(=O)N1CCC(C(=O)O)CC1
23,66 to 68,N#CC(Cl)(Cl)c1nc2ccccc2s1
24,117 to 119,Cc1noc(C)c1CC(=O)O
25,109 to 111,O=C(O)c1ccnc(OCC(F)(F)F)c1
26,159 to 161,CC(=O)Oc1ccc(C(=O)O)cc1OC(C)=O
